According to patent publication EP4737445A1, “NOVEL SATURATED HETEROCYCLE-SUBSTITUTED HETEROARYL-CARBONOHYDRAZONOYL DICYANIDE COMPOUND AND USE THEREOF” (Korea Institute of Science and Technology, priority 2023, dated 2025):

What was measured:
tau [1] = target: T1, tau (Homo sapiens, UniProt P10636, P618L); test: AT8 (pS202/T205) phospho-tau immunofluorescence of brain tissue; format: in vivo; settings: TauP301L-BiFC mice; oral 10 mg/kg, 19 weeks; vehicle = 100%
T1 construct: BiFC fluorescent-protein fragments (two complementary halves); from tissue; host or cells: brain of TauP301L-BiFC transgenic mice
Procedure: After oral administration of Compounds 6, 16, and 20 and completion of behavioral experiments, 13.2-month-old TauP301L-BiFC mice were sacrificed to proceed with brain tissue extraction and [2] brain lysate separation and purification. • [1] First, brain tissue extraction, BiFC fluorescence imaging of brain tissue, and tau phosphorylation antibody immunofluorescence were performed through the following process. TauP301L-BiFC mice were perfused with 0.9% saline and fixed with PBS (pH 7.4) solution containing 4% paraformaldehyde. The brain was extracted and fixed in PBS containing 4% paraformaldehyde at 4°C for 48 to 72 hours. For cryoprotection, the brain was transferred to PBS containing 30% sucrose solution and stored at 4°C until it sank. For frozen sectioning, the brain was immersed in O.C.T (Tissue-TEK) and frozen, and then continuously cut using a brain tissue sectioner. Tissue sections with a thickness of 30 µm were stored in PBS containing 0.05% sodium azide at 4°C.
To measure not only tau oligomer formation but also the degree of tau phosphorylation observed in the tau pathology process, immunofluorescence staining using a tau phosphorylation antibody was performed. For brain tissue immunofluorescence image analysis, brain tissue slices (n=10 per group) were stained with AT8 (pS202/T205) antibody (1:200), and the primary antibody was detected using Alexa Fluor 633-labeled anti-mouse secondary antibody (1:500). Fluorescence images (λex=620-640 nm and λem=650-700 nm) were acquired using Axio Scan.Z1 (ZEISS).
The AT8 fluorescence imaging results of a total of two brain tissue regions (hippocampus (CA1), somatosensory cortex) were as follows: • (1) Hippocampus (CA1), vehicle = 100%, #20= 72%, p<0.01, #6= 81%, p<0.05, #16= 76%, p<0.01. • (2) Sensory cortex (SCTX), vehicle = 100%, #20= 54%, p<0.0001, #6= 63%, p<0.001, #16= 57%, p<0.0001.

tau [2] = target: T1, tau; test: Total tau immunoblot of RIPA-insoluble brain lysates; format: in vivo; settings: TauP301L-BiFC mice, compared to vehicle, numbers not readable (formula image)
Procedure: [2] To verify the tau pathology inhibitory efficacy of the drug confirmed through brain tissue imaging via brain lysate immunoblot, brain lysates were separated and purified, and immunoblot using tau antibody was performed in soluble and insoluble fractions. The brain was weighed, and RIPA lysis buffer containing the corresponding dose of protease and phosphatase inhibitors was added to the brain tissue. The tissue was then disrupted using a homogenizer and incubated at 4°C for 2 hours, and then centrifuged at 13,200 rpm at 4°C for 20 minutes. After centrifugation, the supernatant was collected as a RIPA-soluble fraction and stored at -80°C. To prepare the RIPA-insoluble fraction, the remaining pellet was washed once with RIPA lysis buffer containing 1 M sucrose, and then 2% SDS solution (1 mL per 1 g of tissue) was added and incubated at room temperature for 1 hour. Thereafter, the mixture was centrifuged at 13,200 rpm for 1 minute at room temperature, and the supernatant was collected as a RIPA-insoluble fraction and stored at -80°C.
For tau immunoblot analysis, 20 µg of brain tissue RIPA-soluble sample was separated on a 10% SDS-PAGE gel and transferred to a PVDF membrane, and RIPA-insoluble samples were diluted 10-fold in 2% SDS solution and 20 µL of each sample was loaded on an SDS-PAGE gel. The total tau and phosphorylated tau levels were detected by Tau5, which is an anti-tau antibody, and pS199 and pS396, which are anti-phosphorylated tau antibodies. ImageJ software (NIH) was used to quantify band intensity.
The results of total tau immunoblot using RIPA-insoluble brain lysates were as follows: [formula]

T1 sequence (P10636 1-441 isoform P10636-8 P301L): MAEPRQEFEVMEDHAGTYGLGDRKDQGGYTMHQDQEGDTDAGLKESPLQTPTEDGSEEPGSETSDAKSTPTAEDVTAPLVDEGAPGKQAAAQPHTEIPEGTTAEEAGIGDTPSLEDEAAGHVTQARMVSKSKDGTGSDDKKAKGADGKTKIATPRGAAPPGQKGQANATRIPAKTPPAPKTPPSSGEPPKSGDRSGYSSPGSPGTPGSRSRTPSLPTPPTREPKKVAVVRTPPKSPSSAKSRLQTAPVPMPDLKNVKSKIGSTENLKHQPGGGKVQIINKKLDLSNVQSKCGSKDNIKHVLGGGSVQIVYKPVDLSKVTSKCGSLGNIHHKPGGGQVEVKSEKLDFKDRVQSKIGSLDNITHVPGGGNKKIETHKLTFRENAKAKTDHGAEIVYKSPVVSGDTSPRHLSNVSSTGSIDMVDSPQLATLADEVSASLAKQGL

Cn1c(N2CCOCC2)nc2cc(NN=C(C#N)C#N)ccc21 [Compound 6, (1-methyl-2-morpholino-1H-benzo[d]imidazol-5-yl)carbonohydrazonoyl dicyanide]
AT8 fluorescence, Hippocampus (CA1) (tau [1]): 81%
AT8 fluorescence, Sensory cortex (SCTX) (tau [1]): 63%
total tau immunoblot, insoluble tau aggregate formation (tau [2]): inhibition of insoluble tau aggregate formation

CC1COCCN1c1nc2ccc(NN=C(C#N)C#N)cc2o1 (stereo not drawn) [Compound 16, (2-(3-methylmorpholino)benzo[d]oxazol-6-yl)carbonohydrazonoyl dicyanide]
AT8 fluorescence, Hippocampus (CA1) (tau [1]): 76%
AT8 fluorescence, Sensory cortex (SCTX) (tau [1]): 57%
total tau immunoblot, insoluble tau aggregate formation (tau [2]): inhibition of insoluble tau aggregate formation

N#CC(C#N)=NNc1ccc2nc(N3C4CCC3COC4)oc2c1 [Compound 20, (2-(3-oxa-8-azabicyclo[3.2.1]octan-8-yl)benzo[d]oxazol-6-yl)carbonohydrazonoyl dicyanide]
AT8 fluorescence, Hippocampus (CA1) (tau [1]): 72%
AT8 fluorescence, Sensory cortex (SCTX) (tau [1]): 54%
total tau immunoblot, insoluble tau aggregate formation (tau [2]): inhibition of insoluble tau aggregate formation
